# Results as given in US4656190A, “Indene derivatives and their use as PAF-antagonists” (Merck & Co., Inc., priority 1983, dated 1987).
# “And” between values parts separate entries of the source, which are not always exact repeats. Equal entries are not always repeated. Where two headings read alike, the source gives them in different places.
# Legend:
# [1] = target: T1, PAF specific receptor binding site on rabbit platelet plasma membranes (Oryctolagus cuniculus, UniProt G1TEI7); assay: Inhibition of 3H-PAF binding to rabbit platelet plasma membranes
# T1 construct: from tissue; host or cells: rabbit platelets (plasma membrane suspension)
# T1 sequence (G1TEI7 1-342): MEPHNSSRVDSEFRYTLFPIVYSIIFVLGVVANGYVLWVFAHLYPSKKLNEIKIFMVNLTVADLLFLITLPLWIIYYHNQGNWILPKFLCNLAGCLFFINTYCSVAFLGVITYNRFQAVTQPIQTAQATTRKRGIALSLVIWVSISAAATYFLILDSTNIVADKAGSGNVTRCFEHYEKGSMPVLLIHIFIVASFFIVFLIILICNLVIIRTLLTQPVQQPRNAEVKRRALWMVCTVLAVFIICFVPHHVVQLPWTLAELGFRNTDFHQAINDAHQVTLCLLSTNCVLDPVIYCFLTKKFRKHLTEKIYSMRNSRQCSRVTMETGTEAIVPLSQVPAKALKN
# Procedure: In vitro, they inhibit PAF-induced functions in both the cellular and tissue levels by disturbing the PAF binding to its specific receptor site. The ability of a compound of formula (I) to inhibit the PAF binding to its specific receptor binding site on rabbit platelet plasma membranes was measured by an assay recently developed by us.
# The inhibition of H^3 -PAF binding to the rabbit platelet plasma membrane by a PAF-antagonist of Formula (I) was determined by a method employing isotropic labeling and filtration techniques. Generally, a series of Tris-buffered solutions of the selected antagonist at predetermined concentrations were prepared. Each of these solutions contains 1 pmole of ^3 H-PAF, a known amount of the test antagonist, and a sufficient amount of the pH 7.5 Tris-buffer solution (10 mM Tris, 0.25% bovine serum albumin, and 150 mM NaCl per ml water) to make the final volume of 1 ml. After adding into a set of test tubes each with 100 μg of the platelet plasma membrane suspension (S. B. Hwang, et al., Biochemistry, 22, 4756 (1983)) and one of the Tris-buffer solutions described above, the resulting mixture in each test tube was incubated at 0° C. for about one hour or until the reaction was complete. Two control samples, one of which (C1) contains all the ingredients described above except the antagonist and the other (C2) contains C1 plus a 1000-fold excess of unlabeled PAF, were also prepared and incubated simultaneously with the test samples. After the incubation was completed, the contents of each test tube were filtered under vacuo through a Whatman GF/C fiberglass filter and the residue washed rapidly several times with a total of 20 ml cold (0°-5° C.) Tris-buffer solution. Each washed residue was then suspended in 10 ml scintillation solution (Aquasol 2, New England Nuclear, Connecticut) and the radioactivity was counted in a Packard Tri-Carb 460CD Liquid Scintillation System. Defining the counts from a test sample as "Total binding with antagonist"; the counts from the control sample C1, as "Total binding C1 "; and the counts from the control sample C2 as "non-specific binding C2 ", the percent inhibition of each test antagonist can be determined by the following equation: [formula]
# [2] = tested on: PAF-induced cutaneous vascular permeability; assay: In vivo assay: inhibition of PAF-induced increase of cutaneous vasopermeability in guinea pigs after oral dosing; conditions: guinea pig
# Procedure: The specific PAF-antagonistic activities are further established by in vivo assays following the protocol (modified procedure of Humphrey et al., Lab. Investigation, 46, 422 (1982)) described below:
# Protocol for the Evaluation of the Oral Activity of
# PAF Antagonists or the Inhibition of PAF-Induced
# Increase of Vasopermeability by PAF-Antagonists
# I. Animal species: 5 guinea pigs (400-500 g)
# (4.) Ground and suspend a PAF antagonist of formula
# (I) with intensive sonication in 3 ml of 0.5%
# aqueous methylcellulose solution.
# (5.) Administer orally to each of the animals T1,
# T2, T3 and T4 an appropriate amount (in
# terms of mg/kg of bodyweight) of the antagonist
# solution from 4), except the control animal
# (6.) Forty minutes after the oral administration,
# (7.) After 20 minutes or when the anesthetics became
# effective, inject intracardially to each animal
# and inject intracutaneously, in duplicate 0.1
# ml of a PAF solution in Tris-buffer or 0.1 ml
# of the Tris-buffer itself (control) according
# (9.) Wait for 30 minutes or until the blue color
# (13.) In the meantime, extract a 100 μl sample of
# (15.) Measure the absorbance of each supernatant from
# Palo Alto, CA). Calculate the amount of Evans
# blue in each skin sample in terms of the volume
# (μl) of the exuded blood plasma according to
# the following equation: […]
# (16.) Draw a plasma exudation curve
# (17.) Calculate the percent inhibition of PAF-induced
# cutaneous vascular permeability from measuring
# the area under the plasma exudation curve of
# the control animal (AC) and that of an
# animal treated orally with an antagonist
# (AD), for example T1, according to the […]
# [3] = Table 1, E (trans), read-out: % Inhibition of PAF Binding
# [4] = Table 1, E (trans), dose 5 μM, read-out: % Inhibition of PAF Binding
# [5] = Table II, Z (cis), dose 5 μM, read-out: % Inhibition of PAF Receptor
# [6] = Table II, Z (cis), read-out: % Inhibition of PAF Receptor
compound,measurement,setting,value
"COCCC1=C(C)/C(=C\c2ccc(S(N)(=O)=O)cc2)c2ccc(F)cc21 [E CH2CH2OCH3 / SO2NH2 / F, E 1-(4-aminosulfonylphenyl)methylene-5-fluoro-2-methyl-1H-3-indenyl-(2-methoxy)ethane]",inhibition at 5 µM,[1]; read-out: % Inhibition of PAF Binding,61%
"COc1ccc2c(c1)C(CCO)=C(C)/C2=C\c1ccc(S(N)(=O)=O)cc1 [E CH2CH2OH / SO2NH2 / OCH3, E 1-(4-aminosulfonyl)methylene-5-methoxy-2-methyl-1H-3-indenyl-(2-hydroxy)ethane]",inhibition at 1 µM,[1]; [3],59%
"COc1ccc2c(c1)C(CCSc1ccccc1)=C(C)/C2=C\c1ccc(S(N)(=O)=O)cc1 [E CH2CH2SC6H5 / SO2NH2 / OCH3, E 1-(4-aminosulfonylphenyl)methylene-5-methoxy-2-methyl-1H-3-indenyl-(2-phenylthio)ethane]",inhibition at 5 µM,[1]; [4],56%
"COc1ccc2c(c1)C(CC[S+](C)[O-])=C(C)/C2=C\c1ccc(S(N)(=O)=O)cc1 (stereo not drawn) [E CH2CH2SOCH3 / SO2NH2 / OCH3, E 1-(4-aminosulfonylphenyl)methylene-5-methoxy-2-methyl-1H-3-indenyl-(2-methylsulfinyl)ethane]",inhibition at 0.5 µM,[1]; [3],24%
same,inhibition at 5 µM,[1]; [4],74%
"COC(=O)CC1=C(C)/C(=C\c2ccc(OC)c(OC)c2)c2ccc(OC)cc21 [E CH2COOCH3 / 3,4-dimethoxy / OCH3, E methyl 1-(3,4-dimethoxyphenyl)methylene-5-methoxy-2-methyl-1H-3-indenylacetate]",inhibition at 1 µM,[1]; [3],45%
same,inhibition at 10 µM,[1]; [3],87%
"COC(=O)CC1=C(C)/C(=C\c2ccc(S(N)(=O)=O)cc2)c2ccc(F)cc21 [E CH2COOCH3 / SO2NH2 / F, E-Methyl 1-(4-aminosulfonylphenyl)methylene-5-fluoro-2-methyl-1H-3-indenylacetate]",inhibition at 1 µM,[1]; [3],60%
"CNS(=O)(=O)c1ccc(/C=C2\C(C)=C(CC(=O)OC)c3cc(F)ccc32)cc1 [E CH2COOCH3 / SO2NHCH3 / F, E Methyl 1-[4-(N-methylaminosulfonyl)phenyl]-methylene-5-fluoro-2-methyl-1H-3-indenylacetate]",inhibition at 1 µM,[1]; [3],56%
"CNS(=O)(=O)c1ccc(/C=C2\C(C)=C(CC(=O)OC)c3cc(OC)ccc32)cc1 [E CH2COOCH3 / SO2NHCH3 / OCH3, E Methyl 1-(4-(N-methylaminosulfonyl)phenyl)methylene-5-methoxy-2-methyl-1H-3-indenylacetate]",inhibition at 0.5 µM,[1]; [3],67%
same,inhibition at 5 µM,[1]; [4],100%
COC(=O)CC1=C(C)/C(=C\c2ccc([S+](C)[O-])cc2)c2ccc(F)cc21 (stereo not drawn) [E CH2COOCH3 / SOCH3 / F],inhibition at 5 µM,[1]; [4],45%
"COc1ccc2c(c1)C(CC(=O)O)=C(C)/C2=C\c1ccc(S(N)(=O)=O)cc1 [E CH2COOH / SO2NH2 / OCH3, 1-(4-aminosulfonylphenyl)methylene-5-methoxy-2-methyl-1H-3-indenyl acetic acid]",inhibition at 5 µM,[1]; [4],4%
COc1ccc2c(c1)C(CCn1ccnc1)=C(C)/C2=C\c1ccc(S(N)(=O)=O)cc1 [E drawing 16 / SO2NH2 / OCH3],inhibition at 0.1 µM,"[1]; Table 1, E (trans), dose 0.1 μM, read-out: % Inhibition of PAF Binding",17%
same,inhibition at 0.5 µM,[1]; [3],31%
same,inhibition at 1 µM,[1]; [3],45%
same,inhibition at 5 µM,[1]; [4],90%
COc1ccc2c(c1)C(CCn1ccnc1)=C(C)/C2=C\c1ccc(S(N)(=O)=O)cc1 [E drawing 22 / SO2NH2 / OCH3],% In Vivo Inhibition of PAF Receptor,[2]; 45 mg/kg,52%
same,% In Vivo Inhibition of PAF Receptor,[2]; 50 mg/kg,59%
CSc1ccc(/C=C2/C(C)=C(CCNC(C)=O)c3cc(F)ccc32)cc1 [Z CH2CH2NHCOCH3 / SCH3 / F],inhibition at 5 µM,[1]; [5],50%
"CC(=O)NCCC1=C(C)/C(=C/c2ccc(S(C)(=O)=O)cc2)c2ccc(F)cc21 [Z CH2CH2NHCOCH3 / SO2CH3 / F, Z 1-(4-methylsulfonylphenyl)methylene-5-fluoro-2-methyl-1H-3-indenyl-(2-acetamido)ethane]",% Inhibition of PAF Receptor,"[1]; Table II, Z (cis), dose 5 μM",68% and 90%
"CC(=O)NCCC1=C(C)/C(=C/c2ccc([S+](C)[O-])cc2)c2ccc(F)cc21 (stereo not drawn) [Z CH2CH2NHCOCH3 / SOCH3 / F, Z 1-(4-methylsulfinylphenyl)methylene-5-fluoro-2-methyl-1H-3-indenyl-(2-acetamido)ethane]",inhibition at 5 µM,[1]; [5],39%
"COCCC1=C(C)/C(=C/c2ccc(S(N)(=O)=O)cc2)c2ccc(F)cc21 [Z CH2CH2OCH3 / SO2NH2 / F, Z 1-(4-aminosulfonylphenyl)methylene-5-fluoro-2-methyl-1H-3-indenyl-(2-methoxy)ethane]",inhibition at 5 µM,[1]; read-out: % Inhibition of PAF Receptor,29%
"COc1ccc2c(c1)C(CCSc1ccccc1)=C(C)/C2=C/c1ccc(S(N)(=O)=O)cc1 [Z CH2CH2SC6H5 / SO2NH2 / OCH3, Z 1-(4-aminosulfonylphenyl)methylene-5-methoxy-2-methyl-1H-3-indenyl-(2-phenylthio)ethane]",inhibition at 5 µM,[1]; [5],33%
"COc1ccc2c(c1)C(CC[S+](C)[O-])=C(C)/C2=C/c1ccc(S(N)(=O)=O)cc1 (stereo not drawn) [Z CH2CH2SOCH3 / SO2NH2 / OCH3, Z 1-(4-aminosulfonylphenyl)methylene-5-methoxy-2-methyl-1H-3-indenyl-(2-methylsulfinyl)ethane]",inhibition at 5 µM,[1]; [5],56%
"COC(=O)CC1=C(C)/C(=C/c2ccc(NS(C)(=O)=O)cc2)c2ccc(OC)cc21 [Z CH2COOCH3 / NHSO2CH3 / OCH3, Z methyl 1-(4-(N-mesylaminophenyl))methylene-5-methoxy-2-methyl-1H-3-indenylacetate]",inhibition at 3 µM,"[1]; Table II, Z (cis)",35%
same,inhibition at 10 µM,[1]; [6],72%
"COC(=O)CC1=C(C)/C(=C/c2ccc(S(N)(=O)=O)cc2)c2ccc(OC)cc21 [Z CH2COOCH3 / SO2NH2 / OCH3, Z methyl 1-(4-aminosulfonylphenyl)methylene-5-methoxy-2-methyl-1H-3-indenylacetate]",inhibition at 1 µM,[1]; [6],39%
same,inhibition at 3 µM,"[1]; Table II, Z (cis)",58%
same,inhibition at 5 µM,[1]; [5],66%
same,inhibition at 10 µM,[1]; [6],75%
same,inhibition at 20 µM,"[1]; Table II, Z (cis)",100%
same,inhibition at 50 µM,"[1]; Table II, Z (cis)",100%
COC(=O)CC1=C(C)/C(=C/c2ccc(S(=O)(=O)NC(=N)N)cc2)c2ccc(OC)cc21 [Z CH2COOCH3 / SONHC(NH)NH2 / OCH3],inhibition at 1 µM,[1]; [6],50%
"COc1ccc2c(c1)C(CC(=O)O)=C(C)/C2=C/c1ccc(S(N)(=O)=O)cc1 [Z CH2COOH / SO2NH2 / OCH3, 1-(4-aminosulfonylphenyl)methylene-5-methoxy-2-methyl-1H-3-indenylacetic acid]",inhibition at 5 µM,[1]; [5],32%
same,inhibition at 20 µM,"[1]; Table II, Z (cis)",57%
same,inhibition at 50 µM,"[1]; Table II, Z (cis)",94%
CCOc1ccc2c(c1)C(CC(=O)O)=C(C)/C2=C/c1ccc([S+](C)[O-])cc1 (stereo not drawn) [Z CH2COOH / SOCH3 / OC2H5],inhibition at 5 µM,[1]; [5],42%
"COc1ccc2c(c1)C(CCn1ccnc1)=C(C)/C2=C/c1ccc(S(N)(=O)=O)cc1 [Z drawing 18 / SO2NH2 / OCH3, Z 1-(4-aminosulfonylphenyl)methylene-5-methoxy-2-methyl-1H-3-indenyl-[2-(N-imidazolyl)]ethane]",inhibition at 5 µM,[1]; [5],68%
